Measurements reported in US8835476B2, “Synthesis of novel antimicrobials” (priority 2005, dated 2014).

Columns and labels:
recombinant E. coli LpxA = target: T1, recombinant E. coli LpxA (Escherichia coli, UniProt P0A722); assay: LpxA assay: acyl-UDP-GlcNAc formation from UDP-[3H]GlcNAc, TLC; type: biochemical; details: 5 mM compound; FIG. 8
T1 construct: 6xHis (C); made in house; host or cells: E. coli BL21 (pET23b)
Text: The lpxA gene was amplified from an E. coli genomic library and inserted into a pET23b vector using standard recombinant DNA methodology. The 5′ oligonucleotide for amplification of the LpxA open reading frame was 5′-[…]-3′ (SEQ ID NO. 1) and contains a BamHI restriction enzyme site upstream of the LpxA ATG start codon and the 3′ oligonucleotide was 5′-[…]-3′ (SEQ ID NO. 2) and contains a XhoI restriction enzyme site downstream of the final codon of the LpxA open reading frame. Primers were custom synthesized. The primers were designed such that digestion of the amplification product would result in addition of a C-terminal 6×-His tag in frame with the LpxA open reading frame. Specifically, E. coli genomic DNA was isolated and an amplification reaction was carried out as follows: 33 μl water, 5 μl 10× reaction buffer, 1.5 μl of 50 mM magnesium sulfate, 3 μl of 10 mM dNTPs, 3 μl of a 50 μM solution of the 5′ LpxA primer, 3 μl of a 50 μM solution of the 3′ LpxA primer, 0.5 μl of E. coli genomic DNA solution, and 1 μl of polymerase. The reaction conditions were as follows: 94° C. for 2 minutes; followed by 30 cycles of 94° C. for 30 seconds, 50° C. for 30 seconds, 68° C. for 1.5 minutes, followed by an extension at 68° C. for 7 minutes. The resulting LpxA product was separated from other DNA on a 0.8% agarose gel and isolated from the gel. The LpxA open reading frame was cloned into a topoisomerase I-activated vector and transformed into E. coli. […] The newly synthesized plasmid containing the BamHI- and XhoI-flanked LpxA open reading frame and plasmid pET23a were digested with BamHI and XhoI at 37° C. for 2 hours, DNA was separated by agarose gel electrophoresis, isolated from the gel, and ligated. Ligation reactions were transformed into chemically competent E. coli and plasmid DNA was isolated. Restriction mapping was performed to determine which plasmids contained the LpxA open reading frame. To remove the T7 epitope coding sequence from the 5′end of the LpxA open reading frame, the pET23a plasmid containing the LpxA open reading frame was digested with the restriction enzymes BamHI and XhoI and a pET23b plasmid was digested with BglII and XhoI, DNA was separated by agarose gel electrophoresis, isolated from the gel, and ligated. Ligation reactions were transformed into chemically competent E. coli and plasmid DNA was isolated. Restriction mapping was performed to assess plasmids containing the LpxA open reading frame.
A 5 ml culture of E. Coli BL21 cells expressing the LpxA-6×His plasmid was grown overnight at 37° C. in LB medium containing 50 μg/ml ampicillin and 34 μg/ml chloramphenicol, then subcultured into 500 ml of the same medium and grown at 37° C. until A600=0.6. LpxA expression was induced by addition of 0.5 mM IPTG for three hours. The cells were centrifuged at 7 000×g for 10 minutes at 4° C. and lysed using a mild, nonionic detergent. The soluble fraction containing LpxA was added to 1 ml of nickel affinity resin in a 15 ml Falcon tube; the resin was washed extensively with extraction/wash buffer (50 mM Na-phosphate (pH 7.0) and 300 mM NaCl) prior to use. This mixture was incubated on a rotating platform at low speed for 20 minutes at room temperature. The resin was centrifuged at 1000 rpm in a bench top centrifuge for 2 min, washed twice (10 min each) with 10 ml of extraction/wash buffer, resuspended in 10 ml of extraction/wash buffer, and transferred to a 10 ml polypropylene disposable protein purification column. The column was eluted with 5 ml of 50 mM Na-phosphate (pH 7.0) containing 300 mM NaCl and 150 mM imidazole, collected in 1 ml fractions. The eluate was analysed by SDS-PAGE and was visualised using a protein stain (FIG. 7 inset).
Recombinant Vibrio harveyi acyl carrier protein was prepared from a GST fusion protein as described previously (Flaman et al., 2001). […]

[1] = test system: LPS synthesis in E. coli strain D22; assay: In vivo LPS synthesis: [3H]galactose incorporation into acid-precipitable material; type: cell-based
Protocol: LpxA catalyzes the first step in the synthesis of lipid A (the hydrophobic anchor of LPS), which is essential for the growth and pathogenesis of many gram-negative bacteria. The inhibition of LpxA activity would therefore result in decreased synthesis of LPS. To measure the synthesis of LPS in vivo, the incorporation of radiolabelled galactose into acid-precipitable material was determined. The E. coli strain used for these studies was D22 (obtained from the E. coli Genetic Stock Center), which contains a mutation in the LpxC gene (lpxC101; Normark et al., 1969, J Bacteriol 97, 1334). Strains harbouring this mutation have an increased susceptibility to antibiotics, in addition to producing approximately 30% less LPS (Grundstrom et al., 1980, J Bacteriol 144, 884.). Bacteria were grown in Luria broth to early-log phase, at which point, 500 μl was transferred to a culture tube containing 1 μl of [^3H]galactose (final concentration, 0.2 mM, 20 μCi/μmol) and mixed. Cultures were incubated at 30° C. for 75 minutes with shaking at 220 rpm. Incorporation was terminated by adding 400 μl of labelled culture to 44.4 μl of 100% trichloroacetic acid (TCA, 10% final concentration) in a 1.5 ml microcentrifuge tube. Tubes were vortexed, incubated on ice for 30 minutes, then centrifuged at 14 000 rpm for 5 minutes at room temperature. The pellet was rinsed twice with 1 ml of ice-cold 10% TCA, resuspended in 50 μl of formic acid, and transferred to a scintillation vial for counting.
Compounds to be tested were dissolved in DMSO and added to the bacterial culture prior to labelling with galactose, and LPS synthesis was determined as described previously. The final concentration of DMSO (1%, v/v) had minimal effect on LPS synthesis.

T1 sequence (P0A722 whole entry): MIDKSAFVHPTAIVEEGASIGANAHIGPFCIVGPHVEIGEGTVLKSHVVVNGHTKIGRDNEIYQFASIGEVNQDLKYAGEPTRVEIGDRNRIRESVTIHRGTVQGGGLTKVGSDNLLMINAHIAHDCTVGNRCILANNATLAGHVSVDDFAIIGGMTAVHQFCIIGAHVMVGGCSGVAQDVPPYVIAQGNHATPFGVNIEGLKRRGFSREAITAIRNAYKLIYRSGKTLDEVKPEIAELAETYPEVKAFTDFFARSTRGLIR

Compound	inhibition at 5000 µM (recombinant E. coli LpxA)	decrease of LPS synthesis ([1]; 0.1 mM, FIG. 10B)	decrease of LPS synthesis ([1]; 1 mM, FIG. 10A)
COc1ccc(-c2cc(-c3nnn[nH]3)c(-c3ccc(OC)cc3)s2)cc1 [DNM-131D, 5-(2,5-Bis(4-methoxyphenyl)thiophen-3-yl)-1H-tetrazole]	> 80%	~50%	
CCOC(=O)c1cccc(-c2cc(-c3nnn[nH]3)c(-c3cccc(C(=O)OCC)c3)s2)c1 [DNM-131I, 5-(2,5-Bis(3-(ethoxylcarbonyl)phenyl)thiophen-3-yl)-1H-tetrazole]	> 80%		~80%
